The values that follow come from patent US9849110B2, “Intermittent fibrate administration method” (Biocopea Limited, priority 2012, dated 2017).

Structures are written as SMILES.

The nature of data set [1]: Example 5: blood test of LDL, HDL and cholesterol levels, periodic treatment with gemfibrozil, person. It is filed as in vivo, human. On the procedure: A person visits their physician and during the visit undergoes a blood test. The person is found to have an LDL level of 74 mg/dl, HDL level of 32 mg/dl and a cholesterol level of 311 mg/dl. The physician prescribes gemfibrozil at an initial dose of 600 mg taken orally for one week followed by a one month break, followed by a week of taking gemfibrozil followed by a month break, which schedule is repeated thereafter. To remind the person to take gemfibrozil after the monthly break, the physician inputs the days that the person is to take gemfibrozil and arranges for the person to receive text messages through their cell phone and a telephone call to remind them to take gemfibrozil. One month after taking the first weeks dose of gemfibrozil, the person receives a reminder by text to take the second weeks dose of gemfibrozil. This repeats on a monthly basis. The person returns to the physician for a follow on blood test six months later and they are found to have LDL level of 101 mg/dl, HDL level of 41 mg/dl and a cholesterol level of 211 mg/dl. The physician recommends that the person continue to take gemfibrozil for a week followed by a month break, which the person does on a repeated basis. A year later the person returns to the physician for a blood test.

Data set [2] in a line: Example 4: blood test of LDL, HDL and cholesterol levels, periodic treatment with lovastatin, person. Format: in vivo, human. On the procedure:
A person visits their physician and during the visit undergoes a blood test. The person is found to have an LDL level of 91 mg/dl, HDL level of 40 mg/dl and a cholesterol level of 222 mg/dl. […] To remind the person to take lovastatin after each four month break, the physician inputs the days that the person is to take lovastatin and arranges for the person to receive a letter by postal mail to remind them to take the lovastatin. Four months after taking the first weeks dose of lovastatin, the person receives a reminder by postal mail to take the second weeks dose. This repeats on an every four month basis. The person returns to the physician for a follow on blood test one year later and they are found to have LDL level of 109 mg/dl, HDL level of 45 mg/dl and a cholesterol level of 184 mg/dl. The person continues taking the atorvastatin for a week followed by a break of four months, which they repeat for the rest of their life, with their LDL levels ranging from 115-120, HDL levels ranging from 45-51 and their cholesterol levels ranging from 151-162.

Data set [3] can be described thus: Example 3: blood test of LDL, HDL and cholesterol levels, periodic treatment with fluvastatin, person. Format: in vivo, human. On the procedure:
A person visits their physician and during the visit undergoes a blood test. The person is found to have an LDL level of 87 mg/dl, HDL level of 41 mg/dl and a cholesterol level of 266 mg/dl. […] To remind the person to take fluvastatin following the two month breaks, the physician inputs the days that the person is to take fluvastatin and arranges for the person to receive text messages through Skype that the person will receive on their cell phone and their personal computer. Two months after taking the first weeks dose of atorvastatin, the person receives a reminder by text to take the second weeks dose of atorvastatin two months later. This repeats every two months. The person returns to the physician for a follow on blood test six months later and they are found to have LDL level of 112 mg/dl, HDL level of 47 mg/dl and a cholesterol level of 188 mg/dl. At this point the physician changes the frequency of dosing to one week taking fluvastatin followed by a break of three months at a dose of 40 mg, with this schedule repeating thereafter. The physician inputs the new schedule so that the person receives text messages every three months to restart taking fluvastatin. A year later, the person returns to the physician for a blood test. […] The physician recommends that the person continue to take fluvastatin for a week followed by a three month break and repeating this schedule thereafter, which the person does. A year later the person returns to the physician for a blood test. […] The person continues taking the atorvastatin for a week followed by a three month break and repeating this schedule for the rest of their life, with their LDL levels ranging from 115-120, HDL levels ranging from 45-51 and their cholesterol levels ranging from 151-162.

The nature of data set [4]: Example 2: blood test of LDL, HDL and cholesterol levels, periodic treatment with atorvastatin, person. The settings on record: 40 mg orally, one week on / a month off, after six months. It is filed as in vivo, human.
Assay in data set [5]: as above
Format: in vivo, human. The settings on record: for HDL level / LDL level / cholesterol level: one week on / two months off. On the procedure: A person visits their physician and during the visit undergoes a blood test. The person is found to have an LDL level of 92 mg/dl, HDL level of 41 mg/dl and a cholesterol level of 212 mg/dl. […] To remind the person to take atorvastatin after the monthly breaks, they download an application to their smart phone and inputs the first day they are to take atorvastatin and the application automatically determines the day a month after stopping taking atorvastatin that they are to start taking the atorvastatin again. A month after taking the first weeks dose of atorvastatin, the person receives a reminder from the application on their smart phone to take the second dose of atorvastatin. This repeats on a monthly basis. The person returns to the physician for a follow on blood test six months later and they are found to have LDL level of 120 mg/dl, HDL level of 45 mg/dl and a cholesterol level of 161 mg/dl. At this point the physician changes the frequency of the breaks between week of dosing to every two months, while maintaining the dose of 20 mg. The person inputs the new schedule into the application on their smart phone and they are reminded to take atorvastatin every two month by the application. Six months later, the person returns to the physician for a blood test. […] The physician recommends that the person continue to take atorvastatin for a week followed by a two month break, which the person does. A year later the person returns to the physician for a blood test. […] The person continues taking the atorvastatin for a week every two months for the rest of their life, with their LDL levels ranging from 115-120, HDL levels ranging from 45-51 and their cholesterol levels ranging from 151-162.

The conditions of data set [6]: meta-analysis of clinical trials; cited from earlier work.
Setting [7] is: one week on / four months off, for the rest of their life, in mg/dL.
Where [8] appears, read: once monthly administration (so in the source).
Setting [9] is: one week on / three month break, for the rest of their life, in mg/dL.
Where [10] appears, read: a week every two months, for the rest of their life, in mg/dL.
Where [11] appears, read: dose of 20 mg, after six months.
The mark [12] stands for this setting: 600 mg orally, one week on / one month off, after six months.
Where [13] appears, read: one week on / one month off, a year later.
Setting [14] is: one week on / one month off, for the rest of their life, in mg/dL.
Where [15] appears, read: 40 mg, one week on / four months off, one year later.

Turning to `CC(C)c1c(C(=O)Nc2ccccc2)c(-c2ccccc2)c(-c2ccc(F)cc2)n1CC[C@@H](O)C[C@@H](O)CC(=O)O` [atorvastatin], the “maintaining normal levels of LDL, HDL and cholesterol” value in data set [1] (once monthly administration) was “successful at maintaining normal levels of LDL, HDL and cholesterol”; in data set [3] (setting [8]), “successful at maintaining normal levels of LDL, HDL and cholesterol”; in data set [5] (setting [8]), “successful at maintaining normal levels of LDL, HDL and cholesterol”. In addition, the HDL levels ranging in data set [2] (setting [7]), in data set [3] (setting [9]) and in data set [5] (setting [10]) was 45-51 in each case. Moreover, the LDL levels ranging in data set [2] (setting [7]), in data set [3] (setting [9]) and in data set [5] (setting [10]) was 115-120 each time. For the same compound, the cholesterol levels ranging in data set [2] (setting [7]), in data set [3] (setting [9]) and in data set [5] (setting [10]) was 151-162 throughout. In addition, the HDL level in data set [4] turned out to be 45 mg/dL; in data set [5] (setting [11]), 48 mg/dL; in data set [5] (a year later), 48 mg/dL. The LDL level in data set [4] was 120 mg/dL; in data set [5] (setting [11]), 120 mg/dL; in data set [5] (a year later), 118 mg/dL. The cholesterol level amounted to 161 mg/dL in data set [4], 160 mg/dL in data set [5] (setting [11]) and 161 mg/dL in data set [5] (a year later).

`COCc1c(C(C)C)nc(C(C)C)c(/C=C/[C@@H](O)C[C@@H](O)CC(=O)O)c1-c1ccc(F)cc1` [cerivastatin]: the rhabdomyolysis entry in data set [6] is “rhabdomyolysis did not occur”.

For `Cc1ccc(C)c(OCCCC(C)(C)C(=O)O)c1` [gemfibrozil], in data set [1] (setting [12]), the HDL level was 41 mg/dL, the LDL level was 101 mg/dL and the cholesterol level came out at 211 mg/dL. In addition, in data set [1] (setting [13]), the HDL level was found to be 44 mg/dL, the LDL level was 106 mg/dL and the cholesterol level came to 191 mg/dL. Moreover, in data set [1] (setting [14]), the HDL levels ranging is 45-51, the LDL levels ranging is 115-120 and the cholesterol levels ranging was 151-162.

Take `CC[C@H](C)C(=O)O[C@H]1C[C@@H](C)C=C2C=C[C@H](C)[C@H](CC[C@@H]3C[C@@H](O)CC(=O)O3)[C@H]21` [lovastatin]: in data set [2] (setting [15]), the HDL level was 45 mg/dL, the LDL level was found to be 109 mg/dL and the cholesterol level worked out at 184 mg/dL. In addition, the “maintaining normal levels of LDL, HDL and cholesterol” value in data set [2] (once every four month administration) was “successful at maintaining normal levels of LDL, HDL and cholesterol”.
